Test results from patent US20100204135A1, “USE OF LVV-HEMORPHIN-6 AND OPTIONALLY AF12198 AS THERAPEUTIC AGENT(S)” (priority 2007, published 2010).
Where no end group is shown, it is not given here.

How the values were obtained:
[1] = tested on: Interferon-γ (IFN-γ); assay: Th1/Th2 cytokine profiling assay, IFN-γ; type: cell-based, mouse; conditions: 10 micrograms per ml; Ovalbumin-restimulated Balb/c spleen cells, 72 hours
Protocol: (§1) The Balb/c mice (originated in 1923, it is a popular strain and is used in many different research disciplines. Also classified as an inbred from the production of 20 size) were immunized on Days 1, 15, and 29 with Ovalbumin (Ovalbumin is the main protein found in egg white, commonly used to stimulate an immunological reaction in test animals) in PBS (5 micrograms/injection). On day 50, spleens of the mice were harvested (3 weeks after last boost with Ovalbumin). Cells were cultured (2×10^5/well in triplicate) and incubated with culture medium or test peptides—10 micrograms per ml—for 30 min. Thereafter, additional Ovalbumin was added to the cells at 10 micrograms/ml for in vitro restimulation of the cells. 72 hours later, cell supernatants were harvested and assayed using the Becton Dickinson Mouse Th1/Th2 Cytokine CBA Kit. This kit can be used to measure Interleukin-2 (IL-2), Interleukin-4 (IL-4), Interleukin-5 (IL-5), Interferon-γ (IFN-γ), and Tumor Necrosis Factor-a (TNF-a) protein levels in a single sample. The kit performance has been optimized for analysis of physiologically relevant concentrations (μg/ml levels) of specific cytokine proteins in tissue culture supernatants and serum samples.

[2] = tested on: hepatitis B virus (HBV) ayw strain; assay: HBV experimental assay system, HepG2-2.2.15, TaqMan PCR of secreted HBV DNA; type: cell-based; conditions: 10 micrograms per ml; HepG2-2.2.15, six days, HBV DNA in supernatant
[3] = tested on: Tumor Necrosis Factor-a (TNF-a); assay: Th1/Th2 cytokine profiling assay, TNF-alpha; type: cell-based, mouse; conditions: 10 micrograms per ml; Ovalbumin-restimulated Balb/c spleen cells, 72 hours
Protocol: as §1

[4] = tested on: Human A549 cells; assay: Apoptosis prevention assay (Annexin-5, C2 ceramide); type: cell-based; conditions: 10 micrograms per ml; A549 pretreated 30 min, then C2 ceramide
[5] = tested on: HUVEC; assay: Endothelial tube formation assay; type: cell-based, human; conditions: 10 micrograms per ml, 20 hours
From the text: Positive control was vehicle only.

[6] = tested on: Interleukin-5 (IL-5); assay: Th1/Th2 cytokine profiling assay, IL-5; type: cell-based, mouse; conditions: 10 micrograms per ml; Ovalbumin-restimulated Balb/c spleen cells, 72 hours
Protocol: as §1

[7] = tested on: Interleukin-4 (IL-4); assay: Th1/Th2 cytokine profiling assay, IL-4; type: cell-based, mouse; conditions: 10 micrograms per ml; Ovalbumin-restimulated Balb/c spleen cells, 72 hours
Protocol: as §1

[8] = tested on: Interleukin-2 (IL-2); assay: Th1/Th2 cytokine profiling assay, IL-2; type: cell-based, mouse; conditions: 10 micrograms per ml; Ovalbumin-restimulated Balb/c spleen cells, 72 hours
Protocol: as §1

[9] = tested on: HCMV strain AD169; assay: HCMV plaque formation assay in MRC-5 cells; type: cell-based; conditions: for inhibition of HCMV plaque formation as compared to the virus control experiment: 10 micrograms per ml, 7-10 days
[10] = tested on: Primary Human endothelial cells (HUVEC); assay: Endothelial cell migration assay; type: cell-based; conditions: 10 micrograms per ml, 22 hours
Protocol: Thereafter, designated concentration of testing peptides—10 micrograms per ml—was added in duplicate wells.

| Compound | decrease of the production of IFN-γ in murine spleen cells [1] | inhibition of HBV replication as compared to the virus control infection [2] [%] | change of the production of TNF-alpha in murine spleen cells [3] | effect on the ceramide-induced apoptosis on human lung cells [4] | increase of the tube formation of human endothelial cells [5] [%] | decrease of the production of IL-5 in murine spleen cells [6] [%] | change of the production of IL-4 in murine spleen cells [7] | increase of the production of IL-2 in murine spleen cells [8] [%] | inhibition of HCMV plaque formation as compared to the virus control experiment [9] | antiviral activity of positive control compound ([9]; positive control, HCMV AD169) | inhibition of the migration of human endothelial cells [10] [%] |
| --- | --- | --- | --- | --- | --- | --- | --- | --- | --- | --- | --- |
| Phe-Glu-Trp-Thr-Pro-Gly-Tyr-Trp-Gln-Pro-Tyr-Ala-Leu-Pro-Leu-OH (FEWTPGYWQPYALPL-OH) [Peptide 2] | 37.5% | 26.3 | did not significantly change | 28.6% | 4 | 38.8 | did not significantly change | 68.1 | did not inhibit |  |  |
| Nc1nc(O)c2ncn(COC(CO)CO)c2n1 [Ganciclovir, reference compound] |  |  |  |  |  |  |  |  |  | expected levels of antiviral activity |  |
| Leu-Val-Val-Tyr-Pro-Trp-Thr-Gln-Arg-OH (LVVYPWTQR-OH) [Peptide 1] | did not significantly change | 24.3 | did not significantly change | did not reduce | 2 | 33 | did not significantly change | 54.3 | did not inhibit |  | 4 |
